Assay results published in EPA's ToxRefDB 2.

How the values were obtained:
dog [1] = conditions: Chronic toxicity, beagle, Oral, Feed, dose end: 2 year, group: systemic
rat [2] = conditions: Carcinogenicity; sprague dawley; Oral; Gavage/Intubation; dose end: 105 week; group: systemic; systemic / clinical chemistry / [other] / [other] + systemic / organ weight / liver / relative to body weight + systemic / organ weight / …
rat [3] = conditions: Carcinogenicity, Osborne-Mendel, Oral, Gavage/Intubation, dose end: 104 week, group: systemic
primate = conditions: Sub-acute repeat dose toxicity; Oral; Gavage/Intubation; dose end: 28 day; group: systemic; systemic / in life observation / clinical signs / defecation (diarrhea) + systemic / in life observation / food consumption / food …
rat [4] = conditions: Sub-acute repeat dose toxicity, wistar, Oral, Gavage/Intubation, dose end: 28 day
dog [5] = conditions: Sub-acute repeat dose toxicity, beagle, Oral, Gavage/Intubation, dose end: 14 day, group: systemic
rat [6] = conditions: Prenatal developmental toxicity study, other, Oral, Gavage/Intubation, dose end: 15 GD
rat [7] = conditions: Subchronic oral toxicity in rodents, wistar, Feed, dose end: 3 month, group: systemic
rat [8] = conditions: Combined chronic toxicity/carcinogenicity, wistar, Oral, Feed, dose end: 104 week, group: systemic
rat [9] = conditions: Combined chronic toxicity/carcinogenicity, wistar, Oral, Feed, dose end: 104 week, group: systemic; remark: listed apart in the source
rat [10] = conditions: Multigenerational reproductive toxicity study, sprague dawley, Oral, Feed, dose end: 2 generation
[11] = systemic / clinical chemistry / bilirubin / total bilirubin + systemic / hematology / anisocytosis / anisocytosis + systemic / hematology / …
[12] = systemic / clinical chemistry / glucose / glucose
[13] = systemic / pathology microscopic / liver / carcinoma + systemic / pathology microscopic / liver / neoplastic nodule + systemic / pathology …
[14] = systemic / pathology microscopic / thyroid gland / adenoma
[15] = group: systemic, systemic / hematology / polychromasia / polychromasia + systemic / in life observation / body weight / body weight + systemic / in life …
[16] = group: systemic, systemic / pathology microscopic / ovary / degeneration
[17] = systemic / in life observation / body weight / body weight + systemic / in life observation / clinical signs / salivation + systemic / in …
[18] = systemic / in life observation / body weight / body weight + systemic / pathology microscopic / kidney / vacuolization cytoplasmic + …
[19] = group: developmental, developmental / developmental malformation / bone / full supernumerary + developmental / developmental malformation / general / [other]
[20] = group: maternal, systemic / in life observation / body weight / body weight gain + systemic / in life observation / food consumption / food consumption
[21] = group: maternal, systemic / in life observation / body weight / body weight gain + systemic / in life observation / food consumption / food consumption + …
[22] = systemic / clinical chemistry / [other] / [other] + systemic / in life observation / body weight / body weight gain
[23] = systemic / organ weight / kidney / absolute + systemic / organ weight / kidney / relative to body weight + systemic / organ weight / kidney…
[24] = systemic / clinical chemistry / alpha-2 globulin / alpha-2 globulin
[25] = systemic / clinical chemistry / alpha-2 globulin / alpha-2 globulin + systemic / hematology / platelet / platelet + systemic / organ weight…
[26] = systemic / hematology / platelet / platelet + systemic / organ weight / liver / relative to body weight + systemic / pathology microscopic…
[27] = systemic / pathology microscopic / adrenal gland / pheochromocytoma benign + systemic / pathology microscopic / adrenal gland / …
[28] = group: offspring, developmental / offspring survival late / viability index / viability index + systemic / in life observation / body weight / offspring (pup…
[29] = group: parental, systemic / clinical chemistry / alpha-2 globulin / alpha-2 globulin + systemic / organ weight / kidney / absolute + systemic / organ weight…

**Q.** How did the LOAEL (dog [1]; [11]) turn out when CC(O)CO (stereo not drawn) [1,2-Propylene glycol] was run?
**A.** > 5000 mg/kg/day

**Q.** And the NOAEL (dog [1]; [11])?
**A.** ≥ 5000 mg/kg/day

**Q.** What about the LEL (dog [1]; [12]) of the same compound?
**A.** 2000 mg/kg/day

**Q.** What about the NEL (dog [1]; [12]) of the same compound?
**A.** < 2000 mg/kg/day

**Q.** How did the LEL (rat [2]) turn out when Clc1cc2c(cc1Cl)Oc1cc(Cl)c(Cl)cc1O2 [2,3,7,8-Tetrachlorodibenzo-p-dioxin] was run?
**A.** 3e-06 mg/kg/day

**Q.** What about the LOAEL (rat [2]) of the same compound?
**A.** > 0.0001 mg/kg/day

**Q.** What about the NEL (rat [2]) of the same compound?
**A.** < 3e-06 mg/kg/day

**Q.** And the NOAEL (rat [2])?
**A.** ≥ 0.0001 mg/kg/day

**Q.** And the LOAEL (rat [3]; [13])?
**A.** > 0.0005 mg/kg/day

**Q.** And the NOAEL (rat [3]; [13])?
**A.** ≥ 0.0005 mg/kg/day

**Q.** What about the LEL (rat [3]; [14]) of the same compound?
**A.** 1e-05 mg/kg/day

**Q.** What about the NEL (rat [3]; [14]) of the same compound?
**A.** < 1e-05 mg/kg/day

**Q.** O=c1[nH]c2ccc(S(=O)CCN3CCC(Cc4ccc(F)cc4)CC3)cc2o1 (stereo not drawn) [Besonprodil] was tested. Which LEL (primate) did it give?
**A.** 25 mg/kg/day

**Q.** What about the LOAEL (primate) of the same compound?
**A.** > 500 mg/kg/day

**Q.** What about the NEL (primate) of the same compound?
**A.** < 25 mg/kg/day

**Q.** And the NOAEL (primate)?
**A.** ≥ 500 mg/kg/day

**Q.** What about the LEL (rat [4]; group: maternal, reproductive / reproductive performance / estrous cycle / absent corpora lutea) of the same compound?
**A.** 200 mg/kg/day

**Q.** What about the LOAEL (rat [4]; [15]) of the same compound?
**A.** > 300 mg/kg/day

**Q.** And the NOAEL (rat [4]; [15])?
**A.** ≥ 300 mg/kg/day

**Q.** And the LEL (rat [4]; [16])?
**A.** 25 mg/kg/day

**Q.** What about the NEL (rat [4]; [16]) of the same compound?
**A.** < 25 mg/kg/day

**Q.** What about the LEL (dog [5]; [17]) of the same compound?
**A.** 30 mg/kg/day

**Q.** And the NEL (dog [5]; [17])?
**A.** < 30 mg/kg/day

**Q.** And the LOAEL (dog [5]; [18])?
**A.** > 300 mg/kg/day

**Q.** And the NOAEL (dog [5]; [18])?
**A.** ≥ 300 mg/kg/day

**Q.** ClC1C(Cl)C(Cl)C(Cl)C(Cl)C1Cl (stereo not drawn) [Lindane] was tested. Which LEL (rat [6]; [19]) did it give?
**A.** 20 mg/kg/day

**Q.** What about the LOAEL (rat [6]; [19]) of the same compound?
**A.** 20 mg/kg/day

**Q.** What about the NEL (rat [6]; [19]) of the same compound?
**A.** 10 mg/kg/day

**Q.** What about the NOAEL (rat [6]; [19]) of the same compound?
**A.** 10 mg/kg/day

**Q.** And the LEL (rat [6]; [20])?
**A.** 10 mg/kg/day

**Q.** And the LOAEL (rat [6]; [20])?
**A.** 10 mg/kg/day

**Q.** And the NEL (rat [6]; [21])?
**A.** 5 mg/kg/day

**Q.** And the NOAEL (rat [6]; [21])?
**A.** 5 mg/kg/day

**Q.** And the LEL (rat [7]; [22])?
**A.** 0.01 mg/kg/day

**Q.** And the NEL (rat [7]; [22])?
**A.** < 0.01 mg/kg/day

**Q.** What about the LOAEL (rat [7]; [23]) of the same compound?
**A.** 1 mg/kg/day

**Q.** And the NOAEL (rat [7]; [23])?
**A.** 0.2 mg/kg/day

**Q.** What about the LEL (rat [8]; [24]) of the same compound?
**A.** 0.05 mg/kg/day

**Q.** And the NEL (rat [8]; [24])?
**A.** < 0.05 mg/kg/day

**Q.** What about the LOAEL (rat [8]; [25]) of the same compound?
**A.** 4.81 mg/kg/day

**Q.** What about the NOAEL (rat [8]; [25]) of the same compound?
**A.** 0.47 mg/kg/day

**Q.** What about the LOAEL (rat [9]; [26]) of the same compound?
**A.** 4.81 mg/kg/day

**Q.** And the NOAEL (rat [9]; [26])?
**A.** 0.47 mg/kg/day

**Q.** And the LEL (rat [9]; [27])?
**A.** 0.05 mg/kg/day

**Q.** What about the NEL (rat [9]; [27]) of the same compound?
**A.** < 0.05 mg/kg/day

**Q.** And the LEL (rat [10]; [28])?
**A.** 13.1 mg/kg/day

**Q.** And the LOAEL (rat [10]; [28])?
**A.** 13.1 mg/kg/day

**Q.** What about the NEL (rat [10]; [28]) of the same compound?
**A.** 1.71 mg/kg/day

**Q.** What about the NOAEL (rat [10]; [28]) of the same compound?
**A.** 1.71 mg/kg/day

**Q.** What about the LOAEL (rat [10]; group: parental, systemic / clinical chemistry / alpha-2 globulin / alpha-2 globulin) of the same compound?
**A.** 1.71 mg/kg/day

**Q.** And the LEL (rat [10]; [29])?
**A.** 1.71 mg/kg/day

**Q.** And the NEL (rat [10]; [29])?
**A.** 0.0865 mg/kg/day

**Q.** What about the NOAEL (rat [10]; [29]) of the same compound?
**A.** 0.0865 mg/kg/day
